ChEMBL document CHEMBL4017496 (J Med Chem, 2017)
Calls of active or inactive are those of the source. The rule behind the calls is not given here.

Assays:
[1] = molecular target: T1, Oxysterols receptor LXR-beta (Homo sapiens) (UniProt P55055); experiment: Binding affinity to human LXRbeta at 4 uM by TR-FRET assay
T1 sequence (whole entry): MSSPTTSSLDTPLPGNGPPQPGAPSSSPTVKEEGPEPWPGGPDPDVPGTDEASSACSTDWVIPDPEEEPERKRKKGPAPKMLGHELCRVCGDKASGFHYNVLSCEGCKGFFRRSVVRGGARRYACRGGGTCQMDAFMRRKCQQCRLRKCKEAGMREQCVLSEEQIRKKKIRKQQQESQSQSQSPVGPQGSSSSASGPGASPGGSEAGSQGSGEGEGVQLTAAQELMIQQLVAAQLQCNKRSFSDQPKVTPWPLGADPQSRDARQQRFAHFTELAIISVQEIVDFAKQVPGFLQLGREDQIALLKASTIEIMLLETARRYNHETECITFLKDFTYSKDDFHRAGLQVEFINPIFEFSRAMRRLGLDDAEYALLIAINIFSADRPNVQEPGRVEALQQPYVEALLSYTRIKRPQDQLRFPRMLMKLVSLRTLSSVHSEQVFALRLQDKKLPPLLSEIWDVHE

[2] = molecular target: T2, Oxysterols receptor LXR-alpha (Homo sapiens) (UniProt Q13133); experiment: Binding affinity to human LXRalpha at 4 uM by TR-FRET assay
T2 sequence (whole entry): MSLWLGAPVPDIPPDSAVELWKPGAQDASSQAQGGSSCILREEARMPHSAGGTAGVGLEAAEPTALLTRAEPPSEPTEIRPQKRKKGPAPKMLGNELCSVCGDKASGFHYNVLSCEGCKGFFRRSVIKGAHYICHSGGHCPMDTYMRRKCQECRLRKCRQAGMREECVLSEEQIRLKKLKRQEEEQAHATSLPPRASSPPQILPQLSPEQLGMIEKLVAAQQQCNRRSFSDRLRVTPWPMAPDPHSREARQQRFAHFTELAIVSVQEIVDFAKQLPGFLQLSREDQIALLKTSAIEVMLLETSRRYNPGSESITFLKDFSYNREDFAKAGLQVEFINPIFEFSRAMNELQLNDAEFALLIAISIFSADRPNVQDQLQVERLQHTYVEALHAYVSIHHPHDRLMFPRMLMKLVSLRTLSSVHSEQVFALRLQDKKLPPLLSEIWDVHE

[3] = molecular target: T3, Peroxisome proliferator-activated receptor gamma (Homo sapiens) (UniProt P37231); experiment: Displacement of Fluormone-Pan-PPAR Green from human GST-tagged PPARgamma LBD at 4 uM by TR-FRET assay relative to control
T3 sequence (whole entry): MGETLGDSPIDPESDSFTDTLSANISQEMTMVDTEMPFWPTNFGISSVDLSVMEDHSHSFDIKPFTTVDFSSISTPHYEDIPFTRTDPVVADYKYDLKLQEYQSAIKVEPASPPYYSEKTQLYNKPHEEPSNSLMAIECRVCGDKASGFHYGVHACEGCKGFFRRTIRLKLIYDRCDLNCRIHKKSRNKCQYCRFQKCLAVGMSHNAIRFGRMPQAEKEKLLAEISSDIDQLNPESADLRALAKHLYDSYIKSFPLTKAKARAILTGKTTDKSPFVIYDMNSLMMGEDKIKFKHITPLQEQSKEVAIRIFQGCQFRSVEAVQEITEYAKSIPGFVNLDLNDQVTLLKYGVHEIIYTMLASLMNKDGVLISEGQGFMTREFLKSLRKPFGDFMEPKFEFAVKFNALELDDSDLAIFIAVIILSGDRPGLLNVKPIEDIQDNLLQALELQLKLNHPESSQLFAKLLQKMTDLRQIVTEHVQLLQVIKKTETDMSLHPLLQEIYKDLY

[4] = molecular target: T4, Peroxisome proliferator-activated receptor delta (Homo sapiens) (UniProt Q03181); experiment: Displacement of Fluormone-Pan-PPAR Green from human GST-tagged PPARdelta LBD at 4 uM by TR-FRET assay relative to control
T4 sequence (whole entry): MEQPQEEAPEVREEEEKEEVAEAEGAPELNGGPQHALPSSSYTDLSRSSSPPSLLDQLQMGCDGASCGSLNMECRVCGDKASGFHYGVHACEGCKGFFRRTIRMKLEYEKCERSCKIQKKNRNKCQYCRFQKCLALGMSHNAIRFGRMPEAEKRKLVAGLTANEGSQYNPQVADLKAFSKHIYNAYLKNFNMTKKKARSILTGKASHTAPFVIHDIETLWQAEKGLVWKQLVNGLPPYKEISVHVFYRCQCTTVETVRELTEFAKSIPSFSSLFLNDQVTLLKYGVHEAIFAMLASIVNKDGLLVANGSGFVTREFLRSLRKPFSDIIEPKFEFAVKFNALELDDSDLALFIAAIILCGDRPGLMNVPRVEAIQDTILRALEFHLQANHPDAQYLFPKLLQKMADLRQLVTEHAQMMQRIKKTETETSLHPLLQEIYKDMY

[5] = molecular target: T5, Glucocorticoid receptor (Homo sapiens) (UniProt P04150); experiment: Displacement of Fluormone-GS1 from human GST-tagged glucocorticoid receptor LBD at 4 uM by TR-FRET assay
T5 sequence (whole entry): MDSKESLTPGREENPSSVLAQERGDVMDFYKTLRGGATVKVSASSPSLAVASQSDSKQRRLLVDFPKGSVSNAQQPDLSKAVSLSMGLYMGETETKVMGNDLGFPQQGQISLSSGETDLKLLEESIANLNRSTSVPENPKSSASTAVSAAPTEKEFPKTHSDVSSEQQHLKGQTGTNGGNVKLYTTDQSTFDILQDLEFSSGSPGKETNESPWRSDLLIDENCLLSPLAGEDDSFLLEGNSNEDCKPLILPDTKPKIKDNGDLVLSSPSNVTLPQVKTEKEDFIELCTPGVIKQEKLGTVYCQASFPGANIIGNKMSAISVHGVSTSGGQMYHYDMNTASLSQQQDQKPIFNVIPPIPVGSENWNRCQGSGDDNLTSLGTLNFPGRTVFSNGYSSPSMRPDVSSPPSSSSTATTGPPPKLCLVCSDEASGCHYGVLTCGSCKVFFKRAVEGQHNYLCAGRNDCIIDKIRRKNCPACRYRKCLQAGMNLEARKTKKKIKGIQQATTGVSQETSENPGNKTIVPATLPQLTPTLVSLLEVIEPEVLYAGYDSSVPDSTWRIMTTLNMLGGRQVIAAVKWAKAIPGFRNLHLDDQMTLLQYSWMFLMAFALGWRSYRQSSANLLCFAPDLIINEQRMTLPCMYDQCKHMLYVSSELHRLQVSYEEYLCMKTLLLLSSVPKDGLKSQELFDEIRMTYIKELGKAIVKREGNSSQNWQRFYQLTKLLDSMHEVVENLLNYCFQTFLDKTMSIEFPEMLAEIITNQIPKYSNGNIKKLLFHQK

[6] = molecular target: T6, Peroxisome proliferator-activated receptor alpha (Homo sapiens) (UniProt Q07869); experiment: Displacement of Fluormone-Pan-PPAR Green from human GST-tagged PPARalpha LBD at 20 uM by TR-FRET assay relative to control
T6 sequence (whole entry): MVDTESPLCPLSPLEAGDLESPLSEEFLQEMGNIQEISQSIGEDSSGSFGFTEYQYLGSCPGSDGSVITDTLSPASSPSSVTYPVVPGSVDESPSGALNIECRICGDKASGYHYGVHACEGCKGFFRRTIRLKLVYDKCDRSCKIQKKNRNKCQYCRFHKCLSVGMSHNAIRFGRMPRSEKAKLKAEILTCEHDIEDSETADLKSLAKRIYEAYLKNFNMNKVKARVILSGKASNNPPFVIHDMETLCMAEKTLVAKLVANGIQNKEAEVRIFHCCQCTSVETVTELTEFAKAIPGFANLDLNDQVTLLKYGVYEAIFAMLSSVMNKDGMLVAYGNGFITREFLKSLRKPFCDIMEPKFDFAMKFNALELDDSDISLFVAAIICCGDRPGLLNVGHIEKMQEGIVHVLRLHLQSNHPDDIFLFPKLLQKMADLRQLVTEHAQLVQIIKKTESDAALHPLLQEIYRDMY

[7] = molecular target: T3, Peroxisome proliferator-activated receptor gamma (Homo sapiens); experiment: (§1) Displacement of Fluormone-Pan-PPAR Green from human GST-tagged PPARgamma LBD by TR-FRET assay
[8] = molecular target: T7, Peroxisome proliferator-activated receptor gamma (Homo sapiens, UniProt P37231); experiment: as §1
T7 sequence (P37231 whole entry): T3 sequence (whole entry)

[9] = molecular target: T8, Peroxisome proliferator-activated receptor delta (Homo sapiens, UniProt Q03181); experiment: Displacement of Fluormone-Pan-PPAR Green from human GST-tagged PPARdelta LBD by TR-FRET assay
T8 sequence (Q03181 whole entry): T4 sequence (whole entry)

[10] = Induction of adipogenesis in human bone marrow-derived mesenchymal stem cells assessed as adiponectin level at 20 uM measured on day 7 after 48 hrs by ELISA; format: functional, Mesenchymal stem cell
[11] = Induction of adipogenesis in human bone marrow-derived mesenchymal stem cells assessed as adiponectin level at 4 uM measured on day 7 after 48 hrs by ELISA; format: functional, Mesenchymal stem cell
[12] = molecular target: T6, Peroxisome proliferator-activated receptor alpha (Homo sapiens); experiment: Displacement of Fluormone-Pan-PPAR Green from human GST-tagged PPARalpha LBD at 4 uM by TR-FRET assay relative to control
[13] = tested on: Mesenchymal stem cell; experiment: Inhibition of adipogenesis in human bone marrow-derived mesenchymal stem cells at 1 mM after 7 days in presence of IDX; format: functional, cell-based
[14] = tested on: Mesenchymal stem cell; experiment: Inhibition of adipogenesis in human bone marrow-derived mesenchymal stem cells assessed as decrease in number and size of lipid droplets at 1 mM after 7 days in presence of IDX by oil red O staining based inverted microscopic method; format: functional

| SMILES | Activity [1] | Activity [2] | inhibition [3] | inhibition [4] | inhibition [5] | inhibition [6] | inhibition [7] | Ki [8] | Ki [9] | Activity [10] | Activity [11] | inhibition [12] | inhibition [13] | inhibition [14] |
| --- | --- | --- | --- | --- | --- | --- | --- | --- | --- | --- | --- | --- | --- | --- |
| CNC(=O)[C@H]1O[C@@H](n2cnc3c(NCc4cccc(I)c4)nc(Cl)nc32)[C@H](O)[C@@H]1O [NAMODENOSON] | inactive | inactive | 59% | 75% | inactive | 46.5% | Dose-dependent effect | 2180 nM | 430 nM | 603 pg/mL | 221 pg/mL | inactive | – | – |
| Cn1c(=O)c2c(ncn2C)n(C)c1=O | – | – | – | – | – | – | – | – | – | – | – | – | Active | Active |
